Test results: ChEMBL document CHEMBL1201862, “PubChem BioAssay data set” (2004)
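Grown in 96-well plates, cells were treated for 48 hours with each compound at five concentrations. Insufficient inhibition: endpoint recorded as highest concentration tested. Abbreviation: GI50, concentration required for 50% inhibition of growth.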 Calls of active or inactive are those of the source. Cut-off read from the data, not from the text of the source: active = GI50 up to about 1.1 µM and inactive = higher.

Columns and labels:
Experiment in all cases: inhibition of tumour cell growth, NCI panel, 48 h
SK-OV-3 = system: SK-OV-3
PC-3 = system: PC-3
COLO 205 = system: COLO 205
K562 = system: K562
MDA-N = system: MDA-N
BT-549 = system: BT-549
OVCAR-8 = system: OVCAR-8
MDA-MB-231 = system: MDA-MB-231
KM12 = system: KM12
MOLT-4 = system: MOLT-4
SF-268 = system: SF-268
NCI/ADR-RES = system: NCI/ADR-RES
Malme-3M = system: Malme-3M
LOX IMVI = system: LOX IMVI
ACHN = system: ACHN
HT-29 = system: HT-29
SK-MEL-5 = system: SK-MEL-5
U-251 = system: U-251
HCC 2998 = system: HCC 2998
RPMI-8226 = system: RPMI-8226
SK-MEL-2 = system: SK-MEL-2
MCF7 = system: MCF7
HOP-62 = system: HOP-62
SW-620 = system: SW-620
SNB-75 = system: SNB-75
SK-MEL-28 = system: SK-MEL-28
HOP-92 = system: HOP-92
IGROV-1 = system: IGROV-1
TK-10 = system: TK-10
MDA-MB-435 = system: MDA-MB-435
SF-539 = system: SF-539
HCT-15 = system: HCT-15
SN12C = system: SN12C
UACC-62 = system: UACC-62
OVCAR-4 = system: OVCAR-4
NCI-H460 = system: NCI-H460
M14 = system: M14
A498 = system: A498
UACC-257 = system: UACC-257
OVCAR-5 = system: OVCAR-5
RXF 393 = system: RXF 393
DU-145 = system: DU-145
SF-295 = system: SF-295
UO-31 = system: UO-31
786-0 = system: 786-0
Hs-578T = system: Hs-578T
EKVX = system: EKVX
A549 = system: A549
NCI-H23 = system: NCI-H23
NCI-H522 = system: NCI-H522
CCRF-CEM = system: CCRF-CEM
SNB-19 = system: SNB-19
T47D = system: T47D
NCI-H226 = system: NCI-H226
OVCAR-3 = system: OVCAR-3
HL-60 = system: HL-60
CAKI-1 = system: CAKI-1
HCT-116 = system: HCT-116

How did the GI50 (SK-OV-3) turn out when Fc1nc(Sc2ncnc3nc[nH]c23)nc(-c2c3ccccc3c3sc4ccccc4n23)n1 was run?
Its GI50 is > 100 µM (inactive).

What about the GI50 (PC-3) of the same compound?
The GI50 was > 100 µM (inactive).

What about the GI50 (COLO 205) of the same compound?
The GI50 was > 100 µM (inactive).

What about the GI50 (K562) of the same compound?
Its GI50 is > 100 µM (inactive).

And the GI50 (MDA-N)?
Its GI50 is > 100 µM (inactive).

What about the GI50 (BT-549) of the same compound?
Its GI50 is > 100 µM (inactive).

And the GI50 (OVCAR-8)?
The GI50 was > 100 µM (inactive).

What about the GI50 (MDA-MB-231) of the same compound?
Its GI50 is > 100 µM (inactive).

What about the GI50 (KM12) of the same compound?
The GI50 was > 100 µM (inactive).

What about the GI50 (MOLT-4) of the same compound?
The GI50 was 77.8 µM (inactive).

And the GI50 (SF-268)?
The GI50 was 36.3 µM (inactive).

What about the GI50 (NCI/ADR-RES) of the same compound?
The GI50 was > 100 µM (inactive).

What about the GI50 (Malme-3M) of the same compound?
The GI50 was > 100 µM (inactive).

What about the GI50 (LOX IMVI) of the same compound?
The GI50 was 80 µM (inactive).

And the GI50 (ACHN)?
The GI50 was > 100 µM (inactive).

What about the GI50 (HT-29) of the same compound?
The GI50 was > 100 µM (inactive).

What about the GI50 (SK-MEL-5) of the same compound?
Its GI50 is > 100 µM (inactive).

What about the GI50 (U-251) of the same compound?
The GI50 was > 100 µM (inactive).

What about the GI50 (HCC 2998) of the same compound?
The GI50 was > 100 µM (inactive).

What about the GI50 (RPMI-8226) of the same compound?
The GI50 was > 100 µM (inactive).

What about the GI50 (SK-MEL-2) of the same compound?
Its GI50 is > 100 µM (inactive).

What about the GI50 (MCF7) of the same compound?
The GI50 was > 100 µM (inactive).

What about the GI50 (HOP-62) of the same compound?
The GI50 was > 100 µM (inactive).

What about the GI50 (SW-620) of the same compound?
Its GI50 is > 100 µM (inactive).

What about the GI50 (SNB-75) of the same compound?
The GI50 was > 100 µM (inactive).

And the GI50 (SK-MEL-28)?
Its GI50 is 85.5 µM (inactive).

And the GI50 (HOP-92)?
The GI50 was > 100 µM (inactive).

What about the GI50 (IGROV-1) of the same compound?
The GI50 was > 100 µM (inactive).

And the GI50 (TK-10)?
Its GI50 is > 100 µM (inactive).

What about the GI50 (MDA-MB-435) of the same compound?
Its GI50 is > 100 µM (inactive).

And the GI50 (SF-539)?
The GI50 was > 100 µM (inactive).

And the GI50 (HCT-15)?
Its GI50 is greater than 100 µM.

What about the GI50 (SN12C) of the same compound?
The GI50 was > 100 µM (inactive).

And the GI50 (UACC-62)?
The GI50 was > 100 µM (inactive).

What about the GI50 (OVCAR-4) of the same compound?
The GI50 was > 100 µM (inactive).

And the GI50 (NCI-H460)?
Its GI50 is > 100 µM (inactive).

And the GI50 (M14)?
The GI50 was 43.3 µM (inactive).

What about the GI50 (A498) of the same compound?
The GI50 was > 100 µM (inactive).

What about the GI50 (UACC-257) of the same compound?
The GI50 was > 100 µM (inactive).

What about the GI50 (OVCAR-5) of the same compound?
Its GI50 is > 100 µM (inactive).

And the GI50 (RXF 393)?
Its GI50 is > 100 µM (inactive).

And the GI50 (DU-145)?
Its GI50 is > 100 µM (inactive).

What about the GI50 (SF-295) of the same compound?
Its GI50 is > 100 µM (inactive).

And the GI50 (UO-31)?
The GI50 was > 100 µM (inactive).

What about the GI50 (786-0) of the same compound?
The GI50 was > 100 µM (inactive).

And the GI50 (Hs-578T)?
The GI50 was > 100 µM (inactive).

And the GI50 (EKVX)?
The GI50 was > 100 µM (inactive).

What about the GI50 (A549) of the same compound?
The GI50 was > 100 µM (inactive).

And the GI50 (NCI-H23)?
Its GI50 is > 100 µM (inactive).

What about the GI50 (NCI-H522) of the same compound?
Its GI50 is > 100 µM (inactive).

What about the GI50 (CCRF-CEM) of the same compound?
Its GI50 is 40.7 µM (inactive).

What about the GI50 (SNB-19) of the same compound?
Its GI50 is > 100 µM (inactive).

And the GI50 (T47D)?
Its GI50 is > 100 µM (inactive).

And the GI50 (NCI-H226)?
The GI50 was > 100 µM (inactive).

And the GI50 (OVCAR-3)?
Its GI50 is > 100 µM (inactive).

And the GI50 (HL-60)?
Its GI50 is > 100 µM (inactive).

What about the GI50 (CAKI-1) of the same compound?
Its GI50 is > 100 µM (inactive).

And the GI50 (HCT-116)?
The GI50 was > 100 µM (inactive).

CC(=O)O[C@H]1C#C/C=C\C#CC[C@@H]2C(=O)N[C@@H]12 was tested. Which GI50 (SK-OV-3) did it give?
Its GI50 is 57.8 µM (inactive).

And the GI50 (PC-3)?
Its GI50 is > 100 µM (inactive).

What about the GI50 (COLO 205) of the same compound?
Its GI50 is 50.4 µM (inactive).

What about the GI50 (K562) of the same compound?
Its GI50 is > 62.8 µM (inactive).

What about the GI50 (MDA-N) of the same compound?
Its GI50 is 81.7 µM (inactive).

And the GI50 (BT-549)?
Its GI50 is 30.7 µM (inactive).

What about the GI50 (OVCAR-8) of the same compound?
Its GI50 is 19.8 µM (inactive).

And the GI50 (MDA-MB-231)?
The GI50 was > 100 µM (inactive).

What about the GI50 (KM12) of the same compound?
Its GI50 is > 100 µM (inactive).

What about the GI50 (MOLT-4) of the same compound?
The GI50 was 0.231 µM (active).

And the GI50 (SF-268)?
The GI50 was 18.6 µM (inactive).

And the GI50 (NCI/ADR-RES)?
Its GI50 is 20.7 µM (inactive).

What about the GI50 (Malme-3M) of the same compound?
The GI50 was 22.9 µM (inactive).

What about the GI50 (LOX IMVI) of the same compound?
Its GI50 is 7.78 µM (inactive).

What about the GI50 (ACHN) of the same compound?
Its GI50 is 3.5 µM (inactive).

And the GI50 (HT-29)?
Its GI50 is > 49.8 µM (inactive).

And the GI50 (SK-MEL-5)?
The GI50 was 29.9 µM (inactive).

And the GI50 (U-251)?
Its GI50 is 20.9 µM (inactive).

And the GI50 (HCC 2998)?
The GI50 was 25.1 µM (inactive).

And the GI50 (RPMI-8226)?
Its GI50 is 21.3 µM (inactive).

And the GI50 (SK-MEL-2)?
Its GI50 is 67.8 µM (inactive).

And the GI50 (MCF7)?
The GI50 was 4 µM (inactive).

What about the GI50 (HOP-62) of the same compound?
The GI50 was 7.94 µM (inactive).

And the GI50 (SW-620)?
Its GI50 is > 51.3 µM (inactive).

What about the GI50 (SNB-75) of the same compound?
Its GI50 is 28.1 µM (inactive).

And the GI50 (SK-MEL-28)?
The GI50 was 93.3 µM (inactive).

And the GI50 (HOP-92)?
The GI50 was 46.2 µM (inactive).

What about the GI50 (IGROV-1) of the same compound?
Its GI50 is 22.8 µM (inactive).

What about the GI50 (TK-10) of the same compound?
The GI50 was > 59.7 µM (inactive).

And the GI50 (MDA-MB-435)?
Its GI50 is > 100 µM (inactive).

And the GI50 (SF-539)?
The GI50 was 0.726 µM (active).

What about the GI50 (HCT-15) of the same compound?
Its GI50 is 22.4 µM.

What about the GI50 (SN12C) of the same compound?
The GI50 was 26 µM (inactive).

What about the GI50 (UACC-62) of the same compound?
The GI50 was 26.4 µM (inactive).

What about the GI50 (OVCAR-4) of the same compound?
The GI50 was > 100 µM (inactive).

What about the GI50 (NCI-H460) of the same compound?
Its GI50 is 0.0382 µM (active).

What about the GI50 (M14) of the same compound?
The GI50 was 43.8 µM (inactive).

And the GI50 (A498)?
The GI50 was 21.6 µM (inactive).

What about the GI50 (UACC-257) of the same compound?
The GI50 was > 42.4 µM (inactive).

And the GI50 (OVCAR-5)?
The GI50 was > 100 µM (inactive).

And the GI50 (RXF 393)?
The GI50 was 23.2 µM (inactive).

What about the GI50 (DU-145) of the same compound?
The GI50 was 19.2 µM (inactive).

What about the GI50 (SF-295) of the same compound?
Its GI50 is 24.5 µM (inactive).

And the GI50 (UO-31)?
The GI50 was 3.13 µM (inactive).

And the GI50 (786-0)?
The GI50 was 5.42 µM (inactive).

And the GI50 (Hs-578T)?
The GI50 was 47.3 µM (inactive).

And the GI50 (EKVX)?
The GI50 was > 100 µM (inactive).

And the GI50 (A549)?
Its GI50 is 28.7 µM (inactive).

What about the GI50 (NCI-H23) of the same compound?
The GI50 was 11.2 µM (inactive).

What about the GI50 (NCI-H522) of the same compound?
The GI50 was 19.1 µM (inactive).

And the GI50 (CCRF-CEM)?
Its GI50 is 4.13 µM (inactive).

What about the GI50 (SNB-19) of the same compound?
The GI50 was 31.3 µM (inactive).

And the GI50 (T47D)?
The GI50 was 52.7 µM (inactive).

What about the GI50 (NCI-H226) of the same compound?
Its GI50 is 25.7 µM (inactive).

And the GI50 (OVCAR-3)?
The GI50 was > 78.3 µM (inactive).

What about the GI50 (HL-60) of the same compound?
Its GI50 is 1.99 µM (inactive).

What about the GI50 (CAKI-1) of the same compound?
Its GI50 is 4.5 µM (inactive).

And the GI50 (HCT-116)?
Its GI50 is 27 µM (inactive).
